Test results reported in patent US20230265205A1, “METABOLISM-BASED CHIMERIC ANTIGEN RECEPTORS AND METHODS OF TREATMENT” (Arizona Board of Regents on behalf of Arizona State …, priority 2020, published 2023).

Tested on: C57BL/6j bone marrow derived dendritic cells
Assay: Seahorse extracellular acidification rate (ECAR) assay in glucose-free media
Type: cell-based
Conditions: PFK15 200 nM, 4 hours
Procedure: F16BP particles rescues glycolysis even in the presence of glycolytic inhibitor PFK15. In order to test if F16BP can indeed functionally accelerate glycolysis in the presence of low glucose environment, extracellular acidification rate (ECAR), which measures changes in extracellular pH due to lactic acid production (a byproduct of glycolysis) was determined using Seahorse assays. In this case, although, C57BL/6j bone marrow derived dendritic cells (DCs, another type of phagocytic cell) were utilized, it is believed that CAR macrophages will behave similarly. Specifically, DCs were treated with PFK15 (200 nM), or F16BP particles (0.1 mg/mL) or PFK15+F16BP particles. After 4 hours of treatment with formulations, changes in pH using ECAR were recorded in glucose-free media. In a step-wise manner cells were added with oligomycin to measure ATP production and proton leak, Carbonyl cyanide-4 (trifluoromethoxy) phenylhydrazone (FCCP—disrupts mitochondrial membrane potential) to measure maximal respiration, rotenone and antimycinA (shuts down mitochondrial respiration) to measure spare capacity.

O=C(/C=C/c1ccc2ccccc2n1)c1ccncc1 [PFK15]
ECAR values relative to no treatment control: even lower than no treatment control
